For 2 compounds, Activity results are on record in ChEMBL document CHEMBL5523723, “G Protein-Coupled Estrogen Receptor-Mediated Anti-Inflammatory and Mucosal Healing Activity of a Trimethylpyridinol Analogue in Inflammatory Bowel Disease” (J Med Chem, 2024).

For test [1], the system named is Mus musculus. In words: Antiinflammatory activity against DSS-induced chronic colitis in C57BL/6N/Crl mouse model assessed as recovery of body weight at 300 mg/kg, po administered daily 6 days per week for 5 weeks. The format is functional.
Test [2] concerns Rattus norvegicus. In words: Antiinflammatory activity against TNBS-induced colitis in Sprague-Dawley rat model assessed as recovery of body weight at 300 mg/kg, po administered for 5 days. The format is functional. The conditions noted are these: time 5 day.
In test [3] the test system is Mus musculus. Briefly: Antiinflammatory activity against DSS-induced chronic colitis in C57BL/6N/Crl mouse model assessed as recovery of colon weight at 300 mg/kg, po administered daily 6 days per week for 5 weeks. Format: functional.
The test system of test [4] is Rattus norvegicus. Briefly: Antiinflammatory activity against TNBS-induced colitis in Sprague-Dawley rat model assessed as recovery of colon weight at 300 mg/kg, po administered for 5 days. The note with it: time 5 day. The format is functional.
Test [5] relates to Mus musculus. Briefly: Antiinflammatory activity against DSS-induced chronic colitis in C57BL/6N/Crl mouse model assessed as recovery of body weight at 30 mg/kg, po administered daily 6 days per week for 5 weeks.
Test [6] deals with Mus musculus. In words: Antiinflammatory activity against DSS-induced chronic colitis in C57BL/6N/Crl mouse model assessed as recovery of colon weight at 30 mg/kg, po administered daily 6 days per week for 5 weeks.

For the compound `O=C(O)c1cc(/N=N/c2ccc(S(=O)(=O)Nc3ccccn3)cc2)ccc1O` [SULFASALAZINE], the Activity amounted to 22.8% in the test with Mus musculus [1], 58.3% in the test with Rattus norvegicus [2], 66.9% in the test with Mus musculus [3] and 78.4% with Rattus norvegicus [4].

With `C[C@@H]1CCN(C(=O)CC#N)C[C@@H]1N(C)c1ncnc2[nH]ccc12` [TOFACITINIB], the values for the Activity in the test with Mus musculus [5] and in the test with Mus musculus [6] were 29.5% and 68.2%, respectively.
